Reference: paper PMC5793121 (Toxins, 2018)
“Also recorded” adds a separate entry of the source. Like-named read-outs stand apart in the source and are kept apart here.

Key:
[1] = test system: mice; conditions: mouse, in vivo; cited from earlier work
[2] = human; cited from earlier work
Source text: Pharmacokinetics and pharmacodynamics are the empirical mathematical models that describe the time course of drug effect after administration. Pharmacokinetics describes the disposition of drug in the organism, while pharmacodynamics relates the drug effects to their concentration in the plasma and at the site of action. They can be used to predict the drug action at different doses and by this way to optimize the safe and effective use of the drug. Information from pharmacokinetic studies can be used in the design and analysis of data from other toxicity studies. Several pharmacokineti ...

[3] = test system: hprt gene of CHO-k1 cells; conditions: n = 6
[4] = test system: human neuronal heteromeric α3-containing nAChRs (α3β2, α3β4, etc.); type: cell-based
[5] = test system: mice; conditions: 0.1 mg/kg; cited from earlier work
[6] = test system: male ICR mice; experiment: in vivo
Description: Az acute toxicity was estimated for its intravenous (iv) and intramuscular (im) administration to male ICR mice in a stepwise procedure.
For the iv route of administration, 20 mice were randomly divided in 5 groups of 4 animals each. The animals of each group received a single dose of Az (0.3, 0.4, 0.5, 0.6, or 0.7 mg/kg, respectively) injected into the lateral tail vein at a volume of 1 mL/kg. For the im route of administration, first two experimental groups of 3 animals each were formed. Az at doses of 0.75 and 1.0 mg/kg, respectively, was injected into the quadriceps muscle of the thigh (quadriceps femoris muscle) of two mouse hind limbs at a volume of 0.5 mL/kg to each muscle. Then, five experimental groups of 5 animals each were formed. Az was injected into the quadriceps muscle of the thigh (quadriceps femoris muscle) of the two hind limbs of male ICR mice at doses of 0.8, 0.775, 0.75, 0.725 and 0.7 mg/kg. The injection volume to each limb was 1 mL/kg. Further, neurotoxic manifestations were recorded in animals at 5, 10, 20, 30, 60 and 90 min and 24 h after administration using the functional observation battery, the number of death was counted as well.
For the iv and im route of administration, the median lethal dose (LD50) was calculated using a probit analysis. For the im route of administration, the maximum tolerated dose was determined.
Rocuronium was administered intramuscularly at doses of 0.13 mg/kg (n = 1), 0.1 mg/kg (n = 4) and 0.08 mg/kg (n = 4) in the triceps of the forelimbs of male ICR mice (8–9 weeks old). Control animals were injected with saline (n = 4). The volume of administration was 0.5 mL/kg in each limb.

[7] = test system: male ICR mice; experiment: Forelimb grip strength test (muscle relaxant effect) after intramuscular administration; type: in vivo, mouse
Description: 40 male ICR mice were divided equally into four groups: one control and three experimental groups. Animals of the control and experimental groups were treated with normal saline and with Az at doses of 0.03, 0.1 and 0.3 mg/kg, respectively. In addition 6 mice were treated with Az at dose of 0.01 mg/kg. The corresponding solutions were injected into the triceps muscles of the mouse forelimbs at a volume of 0.5 mL/kg per each limb. For all animals their basic forelimb grip strength was recorded before the substance administration with a 1027 grip strength meter (Columbus Instruments, Columbus, OH, USA). Further, their grip strength was measured 5, 10, 15, 20, 30, 60, 90 min after the Az (or normal saline) im administration.
Rocuronium was administered intramuscularly as described for the measurement of acute toxicity (Section 5.4.1). Muscle strength was assessed prior to administration of the substance and then 1, 2, 3, 4, 5 min after administration.

[8] = test system: cultured human peripheral blood lymphocytes; conditions: concentrations without significant cytotoxic effect; cited from earlier work
Source text: Mutagenicity, that is the induction of permanent transmissible changes in the amount or structure of the genetic material of cells or organisms, is very important parameter of drug candidate. Highly mutagenic compounds can hardly be considered for drug development, therefore mutagenicity studies are a necessary phase in preclinical evaluations.

[9] = test system: rats; conditions: iv injection to rats; cited from earlier work
Description: Acute toxicity of Az was determined using different administration ways: intraperitoneal (ip), intramuscular (im) and intravenous (iv) injections.

[10] = target: T1, mouse muscle type α1β1εδ nAChR (Mus musculus, UniProt P02716+P04756+P20782); experiment: Calcium imaging of ACh-evoked [Ca2+]i rise in Neuro2a cells expressing muscle nAChR (Case12 sensor); type: cell-based
T1 construct: expressed in transfected cells; host or cells: mouse neuroblastoma Neuro2a, transient transfection (pRBG4 plasmids), co-expressed with Case12 calcium sensor
Description: (§1) Mouse neuroblastoma Neuro2a cells were purchased from the Russian collection of cell cultures (Institute of Cytology, Russian Academy of Sciences, Saint Petersburg, Russia). Cells were cultured in DMEM (Paneco, Moscow, Russia) supplemented with 10% FBS. They were sub-cultured the day before transfection and were plated at a density of 10,000 cells per well in a 96-well black plate. On the next day Neuro2a cells were transiently transfected with plasmids coding mouse muscle α1β1δε nAChR (pRBG4-vector) and a fluorescent calcium sensor Case12 (pCase12-cyto vector, Evrogen, Moscow, Russia) in a molar ratio of 2:1 following a lipofectamine transfection protocol (ThermoFisher Scientific, Waltham, MA, USA). Human α7 nAChR (α7 nAChR-pCEP4) was expressed accordingly with a co-expression of the human chaperone Ric-3 (Ric3-pCMV6-XL5, OriGene, Rockville, MD, USA) in a molar ratio 4:1. The transfected cells were grown at 37 °C in a CO2 incubator for 48–72 h, before performing the calcium imaging assay.
Calcium imaging procedure was performed as published earlier. Briefly, after removing the growth medium, the transfected Neuro2a cells and cultivated SH-SY5Y cells were washed with a buffer containing 140 mM NaCl, 2 mM CaCl2, 2.8 mM KCl, 4 mM MgCl2, 20 mM HEPES, 10 mM glucose; pH 7.4. Neuro2a cells expressing muscle nAChR and the protein calcium sensor Case12 were proceeded directly, while SH-SY5Y cells expressing human α3-containing nAChRs natively were loaded with a fluorescent dye Fluo-4, AM (1.824 μM, ThermoFisher Scientific, Waltham, MA, USA) and a water-soluble probenecid (1.25 mM, ThermoFisher Scientific, Waltham, MA, USA) for 30 min at 37 °C and then were kept for 30 min at room temperature according to the manufacturer’s protocol.
To detect the human α7 nAChR-mediated calcium response, transfected Neuro2a cells were incubated with its positive allosteric modulator PNU120596 (10 μM, Tocris Bioscience, Bristol, UK) for 20 min at room temperature before acetylcholine (Sigma-Aldrich Chemie Gmbh, Munich, Germany) addition. To assess mouse muscle or human α3-containing nAChRs this step was skipped. […]
(§2) The plates were transferred to the multimodal microplate reader Hidex Sence (Hidex, Turku, Finland) where the cells were excited by light of 485 nm wavelength and emitted fluorescence was detected at 535 ± 10 nm. Fluorescence was recorded every 2 s for three minutes following agonist addition. Responses were measured as peak intensity minus basal fluorescence level and were expressed as a percentage of the maximal response obtained to agonist. Data files were analyzed using Hidex Sence software (Hidex, Turku, Finland) and OriginPro 7.5 software (OriginLab, Northampton, MA, USA, for statistical analysis).

[11] = target: T2, human neuronal homopentameric α7 nAChR (Homo sapiens, UniProt P36544); experiment: Calcium imaging of ACh-evoked [Ca2+]i rise in Neuro2a cells expressing α7 nAChR; type: cell-based; conditions: 10 μM ACh (EC50); transfected Neuro2a cells, PNU120596 10 μM; 15 min preincubation; mean ± SEM, 4 independent experiments; read-out: IC50, inhibition of ACh-evoked calcium response of α7 nAChR
T2 construct: expressed in transfected cells; host or cells: mouse neuroblastoma Neuro2a, transient transfection (α7 nAChR-pCEP4) with human Ric-3 (Ric3-pCMV6-XL5, OriGene)
Description: as §1, with “Human α7 nAChR (α7 nAChR-pCEP4) was expressed accordingly with a co-expression of the human chaperone Ric-3 (Ric3-pCMV6-XL5, OriGene, Rockville, MD, USA) in a molar ratio 4:1. The transfected cells were grown at 37 °C in a CO2 incubator for 48–72 h, before performing the calcium imaging assay.” left out
as §2

[12] = Description: The pharmacokinetic study was performed using 163 male ICR mice. Four experimental groups with 40 animals in each were formed. Three intact mice were used as control animals. The animals of the first two experimental groups were intravenously injected with 0.25 and 0.50 mg/kg [^125I]-Az, respectively. The animals of the other two experimental groups were intramuscularly injected with 0.25 and 0.50 mg/kg [^125I]-Az, respectively. To estimate Az elimination rate, animal blood samples were taken from the orbital sinus 5, 15, 30, 60 min and 1, 2, 4 and 24 h after [^125I]-Az administration. The obtained blood samples were weighed. For each indicated time point, [^125I]-Az concentration was calculated as a mean value in blood samples of five animals. The radioactivity (cpm) in the blood samples was counted using a Wallac 1470 WIZARD® Gamma Counter (Perkin Elmer, Waltham, MA, USA). […] Radioactivity data (cpm) were re-calculated to the concentration of [^125I]-Az in the obtained blood samples. The specific pharmacokinetic parameters (AUC (0 → t), Cmax, T1/2) of [^125I]-Az were estimated.
[13] = intramuscular administration, 0.25 and 0.5 mg/kg, male ICR mice

T1 sequence (P09690 24-501): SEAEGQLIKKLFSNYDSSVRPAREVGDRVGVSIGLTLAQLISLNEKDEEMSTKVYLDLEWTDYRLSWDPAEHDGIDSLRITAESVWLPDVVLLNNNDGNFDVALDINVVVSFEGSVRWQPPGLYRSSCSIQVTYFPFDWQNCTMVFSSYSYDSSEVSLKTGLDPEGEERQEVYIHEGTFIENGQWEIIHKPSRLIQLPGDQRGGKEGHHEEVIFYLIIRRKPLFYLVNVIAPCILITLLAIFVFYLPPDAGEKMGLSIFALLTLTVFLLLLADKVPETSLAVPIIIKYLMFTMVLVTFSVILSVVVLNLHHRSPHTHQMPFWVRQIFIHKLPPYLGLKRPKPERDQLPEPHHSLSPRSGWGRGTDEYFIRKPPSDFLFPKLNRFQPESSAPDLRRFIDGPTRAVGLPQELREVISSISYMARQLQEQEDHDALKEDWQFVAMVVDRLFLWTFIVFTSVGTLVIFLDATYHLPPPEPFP
T1 sequence (P04756 21-457): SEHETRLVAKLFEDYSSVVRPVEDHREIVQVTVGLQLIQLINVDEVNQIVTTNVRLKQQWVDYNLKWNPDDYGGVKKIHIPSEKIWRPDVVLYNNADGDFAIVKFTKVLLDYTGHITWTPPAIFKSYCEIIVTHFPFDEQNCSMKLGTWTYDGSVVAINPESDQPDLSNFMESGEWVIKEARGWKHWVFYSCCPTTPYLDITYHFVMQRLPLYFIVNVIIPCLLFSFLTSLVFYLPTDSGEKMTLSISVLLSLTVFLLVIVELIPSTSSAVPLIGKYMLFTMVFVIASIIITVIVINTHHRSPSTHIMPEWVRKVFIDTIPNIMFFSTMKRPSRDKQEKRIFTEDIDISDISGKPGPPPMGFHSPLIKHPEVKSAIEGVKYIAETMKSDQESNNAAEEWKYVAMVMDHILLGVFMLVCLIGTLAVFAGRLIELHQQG
T1 sequence (P02716 25-520): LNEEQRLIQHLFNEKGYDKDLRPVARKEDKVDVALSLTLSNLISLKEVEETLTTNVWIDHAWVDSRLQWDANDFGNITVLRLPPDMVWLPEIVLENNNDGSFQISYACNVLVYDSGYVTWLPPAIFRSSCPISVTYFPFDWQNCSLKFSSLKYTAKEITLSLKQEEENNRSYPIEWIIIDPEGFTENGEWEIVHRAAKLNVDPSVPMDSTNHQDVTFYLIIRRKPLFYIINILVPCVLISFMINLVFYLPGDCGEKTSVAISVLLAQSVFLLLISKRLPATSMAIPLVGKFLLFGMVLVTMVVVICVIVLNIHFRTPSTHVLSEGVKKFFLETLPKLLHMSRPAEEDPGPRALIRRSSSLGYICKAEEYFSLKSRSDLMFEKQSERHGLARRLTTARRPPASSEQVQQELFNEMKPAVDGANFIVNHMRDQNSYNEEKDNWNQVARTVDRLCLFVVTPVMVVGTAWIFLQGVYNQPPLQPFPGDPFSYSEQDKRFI
T1 sequence (P20782 21-493): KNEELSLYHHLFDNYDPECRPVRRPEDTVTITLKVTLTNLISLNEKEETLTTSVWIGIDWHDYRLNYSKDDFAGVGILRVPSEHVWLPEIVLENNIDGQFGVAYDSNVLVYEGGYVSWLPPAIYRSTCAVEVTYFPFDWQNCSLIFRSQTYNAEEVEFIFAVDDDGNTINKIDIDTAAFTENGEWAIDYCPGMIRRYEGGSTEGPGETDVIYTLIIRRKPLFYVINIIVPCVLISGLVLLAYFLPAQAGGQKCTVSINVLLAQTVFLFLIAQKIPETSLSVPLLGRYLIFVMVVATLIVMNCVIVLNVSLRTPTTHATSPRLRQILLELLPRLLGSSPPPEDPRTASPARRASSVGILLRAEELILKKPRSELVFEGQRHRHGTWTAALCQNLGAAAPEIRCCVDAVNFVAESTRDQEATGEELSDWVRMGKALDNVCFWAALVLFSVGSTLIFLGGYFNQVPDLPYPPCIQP
T2 sequence (P36544 23-502): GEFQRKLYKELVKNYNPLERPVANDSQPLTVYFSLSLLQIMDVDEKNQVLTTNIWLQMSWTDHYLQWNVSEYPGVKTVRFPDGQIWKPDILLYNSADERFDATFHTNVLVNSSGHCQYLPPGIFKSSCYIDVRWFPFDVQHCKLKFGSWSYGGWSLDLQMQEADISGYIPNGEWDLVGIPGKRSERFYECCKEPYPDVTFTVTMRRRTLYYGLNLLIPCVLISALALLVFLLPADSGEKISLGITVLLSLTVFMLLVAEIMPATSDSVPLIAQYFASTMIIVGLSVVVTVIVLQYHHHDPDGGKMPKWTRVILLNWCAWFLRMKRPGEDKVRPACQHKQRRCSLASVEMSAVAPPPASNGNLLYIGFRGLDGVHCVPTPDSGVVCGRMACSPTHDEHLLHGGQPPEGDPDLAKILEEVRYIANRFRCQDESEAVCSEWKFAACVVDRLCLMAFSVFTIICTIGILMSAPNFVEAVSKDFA

**Q.** For `COc1cc2c3cc1Oc1cc(ccc1O)C[C@@H]1c4c(cc(OC)c(O)c4Oc4ccc(cc4)C[C@@H]3N(C)CC2)CC[N+]1(C)C` [(+)-tubocurarine], which LD50 [1] is on record?
**A.** 0.11 mg/kg

**Q.** With `COc1ccc(CC2c3cc(OC)c(OC)cc3CC[N+]2(C)CCC(=O)OCCCCCOC(=O)CC[N+]2(C)CCc3cc(OC)c(OC)cc3C2Cc2ccc(OC)c(OC)c2)cc1OC` (stereo not drawn) [atracurium] as the compound, how does the excretion half-life [2] read?
**A.** 17 min

**Q.** With `CCN(N=O)C(N)=O` [ethylnitrosurea, reference compound] as the compound, how does the “frequency of mutations in the hprt gene” value ([3]; positive control 6.25 and 12.5 μg/mL, absence of S9) read?
**A.** 33.9–39.5 × 10^−6

**Q.** With `Cc1ccc2cc3c(ccc4ccccc43)c3c2c1CC3` [methylcholanthrene, reference compound] as the compound, how does the “frequency of mutations in the hprt gene” value ([3]; positive control 2.5 and 5 μg/mL, presence of S9) read?
**A.** 35.7–45.7 × 10^−6

**Q.** For `CN1CCC[C@H]1c1cccnc1` [nicotine, reference compound], which EC50 ([4]; read-out: EC50 of nicotine-induced calcium responses) is on record?
**A.** 22 ± 2 µM

**Q.** Which “decrease of grip strength” value [5] does the source give for `CC(=O)O[C@H]1C[C@@H]2CC[C@@H]3[C@H](CC[C@@]4(C)[C@H]3C[C@H]([N+]3(C)CCCCC3)[C@@H]4OC(C)=O)[C@@]2(C)C[C@@H]1[N+]1(C)CCCCC1` [pancuronium] here?
**A.** 24.1%

**Q.** Which “visible signs of toxicity” value ([6]; rocuronium im 0.08 mg/kg) does the source give for `C=CC[N+]1([C@H]2C[C@H]3[C@@H]4CC[C@H]5C[C@H](O)[C@@H](N6CCOCC6)C[C@]5(C)[C@H]4CC[C@]3(C)[C@H]2OC(C)=O)CCCC1` [rocuronium, Rocuronium Bromide, reference compound] here?
**A.** did not induce visible signs of toxicity

**Q.** And the “time after administration at which toxicity signs disappeared” value ([6]; rocuronium im 0.1 mg/kg)?
**A.** 3 to 4 min

**Q.** And the “time of first signs of intoxication after injection” value ([6]; rocuronium im 0.13 mg/kg)?
**A.** 30 s

**Q.** And the “time of death after injection” value ([6]; rocuronium im 0.13 mg/kg, n = 1)?
**A.** 11.5 min

**Q.** What about the lethality ([6]; rocuronium im 0.08 and 0.1 mg/kg, n = 4 each) of the same compound?
**A.** did not cause the death of animals

**Q.** And the “effect on grip strength compared to control” value ([7]; rocuronium 0.08 mg/kg im, n = 4)?
**A.** no statistically significant difference; also recorded: no statistically significant relaxing effect

**Q.** What about the grip strength ([7]; rocuronium 0.13 mg/kg im, after 60 s, n = 1) of the same compound?
**A.** 0 kg

**Q.** What about the “time after injection at which effect disappeared” value ([7]; rocuronium im) of the same compound?
**A.** ≤ 5 min

**Q.** And the genotoxicity [8]?
**A.** capable of causing genotoxicity via clastogenic effects

**Q.** What about the LD50 [9] of the same compound?
**A.** about 0.3 mg/kg

**Q.** And the Cmax [2]?
**A.** 27 µg/kg

**Q.** What about the excretion half-life [2] of the same compound?
**A.** 71 min

**Q.** And the “inhibition of Nic induced responses” value [4]?
**A.** about 60%

**Q.** And the IC50 ([10]; 30 μM ACh (EC100), transfected Neuro2a cells, Case12 sensor, 15 min preincubation, mean ± SEM, 4 independent experiments, read-out: IC50, inhibition of ACh-evoked calcium response of muscle nAChR)?
**A.** 0.257 ± 0.0955 µM

**Q.** And the “selectivity to muscle receptor versus α7 nAChR” value ([10]; ratio of calcium imaging IC50 values α7 / muscle)?
**A.** about 100 times

**Q.** And the IC50 [11]?
**A.** 25.7 ± 4.5 µM

**Q.** Which LD50 [1] does the source give for `CC(=O)O[C@H]1C[C@@H]2CC[C@@H]3[C@H](CC[C@@]4(C)[C@H]3C[C@H]([N+]3(C)CCCCC3)[C@@H]4OC(C)=O)[C@@]2(C)C[C@@H]1N1CCCCC1` [vecuronium] here?
**A.** 0.05 mg/kg

**Q.** What about the Cmax [2] of the same compound?
**A.** about 1 µg/mL

**Q.** For diiodoazemiopsin [[^125I]-Az], which lethality ([6]; [125I]-Az single iv and im 0.25 and 0.50 mg/kg, male ICR mice) is on record?
**A.** No lethality

**Q.** And the “removal from the free blood flow” value ([12]; during 24 h, both iv and im administration)?
**A.** almost completely removed

**Q.** What about the “half-life T1/2” value [12, 13] of the same compound?
**A.** 20 to 40 min

**Q.** What about the “time within which maximum concentration (Cmax) was achieved” value [12, 13] of the same compound?
**A.** five

**Q.** What about the “excretion half-life (T1/2)” value ([12]; single intravenous injection, 0.25 and 0.5 mg/kg, male ICR mice) of the same compound?
**A.** 15 to 20 min

**Q.** With α-conotoxin MII [reference compound] as the compound, how does the IC50 ([4]; read-out: IC50, inhibition of calcium responses induced by 100 µM nicotine) read?
**A.** 0.06 ± 0.004 µM
